US4992421A, “Luteinizing hormone releasing hormone antagonist” (priority 1988, dated 1991)

What was measured:
[1] = molecular target: T1, LHRH receptors (rat pituitary membranes) (Rattus norvegicus, UniProt P30969); assay: LHRH radioligand receptor binding assay; conditions: radioiodinated [D-Leu6-des Gly10]-LHRH ethyl amide 50 pM, 2 hours at 4° C., read-out: LHRH RECEPTOR BINDING AFFINITY KI
T1 construct: Pituitary membranes containing LHRH receptors are prepared in batches from quick-frozen rat pituitaries; tissue Hilltop Labs; host or cells: rat pituitary membranes
T1 sequence (P30969 1-327): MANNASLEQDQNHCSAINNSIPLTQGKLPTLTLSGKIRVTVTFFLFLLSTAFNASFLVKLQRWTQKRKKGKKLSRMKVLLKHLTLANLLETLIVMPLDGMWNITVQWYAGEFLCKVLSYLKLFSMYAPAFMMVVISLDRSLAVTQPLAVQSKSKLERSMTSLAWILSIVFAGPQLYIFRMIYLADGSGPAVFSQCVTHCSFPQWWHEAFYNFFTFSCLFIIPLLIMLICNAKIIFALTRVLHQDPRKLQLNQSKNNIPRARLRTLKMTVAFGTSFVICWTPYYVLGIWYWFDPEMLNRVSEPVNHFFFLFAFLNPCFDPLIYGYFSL
Method: Receptor Binding. A radioligand receptor binding assay is performed in a similar way to that described in the literature (J. Marion et al., Mol. Pharmacol. 19 399 (1981)). [D-Leu^6 -des Gly^10 ]-LHRH ethyl amide was radioiodinated by the chloramine-T method and used as the radioligand. Pituitary membranes containing LHRH receptors are prepared in batches from quick-frozen rat pituitaries obtained from Hilltop Labs. The radioligand (50 pM), receptors, and compounds to be tested are coincubated for 2 hours at 4° C. Bound ligand is separated from free ligand via centrifugation and aspiration. Compounds are tested at six half-log concentration increments, and the equilibrium dissociation constant (KI) is calculated from the concentration which displaces 50% of specifically bound radioligand.

[2] = system: serum testosterone; conditions: given orally to patients, 200 to 1200 mg daily; cited from earlier work
[3] = in vivo; cited from earlier work

| Compound | Ki [1] [µM] | suppression of serum testosterone [2] | bioavailable from the duodenum [3] |
| --- | --- | --- | --- |
| CC(=O)N1CCN(c2ccc(OCC3COC(Cn4ccnc4)(c4ccc(Cl)cc4Cl)O3)cc2)CC1 (stereo not drawn) [Ketoconazole] | 2 | dose dependent suppression of serum testosterone |  |
| CCNC(=O)[C@@H]1CCCN1C(=O)[C@H](CCCNC(=N)N)NC(=O)[C@H](CC(C)C)NC(=O)[C@@H](CC(C)C)NC(=O)[C@H](Cc1ccc(O)cc1)NC(=O)[C@H](CO)NC(=O)[C@H](Cc1c[nH]c2ccccc12)NC(=O)[C@H](Cc1c[nH]cn1)NC(=O)[C@@H]1CCC(=O)N1 [leuprolide] |  |  | less than 1% |
